According to ChEMBL document CHEMBL3588838, “A full conformational characterization of antiandrogen cortexolone-17-propionate and related compounds through theoretical calculations and nuclear magnetic resonance spectroscopy” (Medchemcomm, 2014):
One block for each compound: values may come before it. The source made the active and inactive calls. No cut-off for these calls is given here.

Tests used:
Syrian golden hamster [1] = experiment: Antiandrogenic activity in female Syrian golden hamsters assessed as inhibition of testosterone propionate-induced flank organ enlargement at 400 ug per animal, topically relative to untreated control; format: functional, Mesocricetus auratus
Plasma = experiment: Drug metabolism in rat plasma assessed as cortexolone-21-propionate formation after up to 8 hrs by HPLC analysis in presence of 50 ug/ml dichlofvos; format: ADME, cell-free
Syrian golden hamster [2] = experiment: Antiandrogenic activity in female Syrian golden hamsters assessed as inhibition of testosterone propionate-induced flank organ enlargement at 100 ug per animal, topically relative to untreated control; format: functional, Mesocricetus auratus
Syrian golden hamster [3] = experiment: Antiandrogenic activity in female Syrian golden hamsters assessed as inhibition of testosterone propionate-induced flank organ enlargement at 200 ug per animal, topically relative to untreated control; format: functional, Mesocricetus auratus
[4] = target: Steroid 5-alpha-reductase (Homo sapiens) (UniProt P18405+P31213+Q9H8P0); experiment: Inhibition of 5alpha-reductase in human epidermis assessed as inhibition of [14C]testosterone to DHT after 24 hrs; format: protein assay
Sequence of Steroid 5-alpha-reductase (Homo sapiens) (P18405 whole entry, looked up): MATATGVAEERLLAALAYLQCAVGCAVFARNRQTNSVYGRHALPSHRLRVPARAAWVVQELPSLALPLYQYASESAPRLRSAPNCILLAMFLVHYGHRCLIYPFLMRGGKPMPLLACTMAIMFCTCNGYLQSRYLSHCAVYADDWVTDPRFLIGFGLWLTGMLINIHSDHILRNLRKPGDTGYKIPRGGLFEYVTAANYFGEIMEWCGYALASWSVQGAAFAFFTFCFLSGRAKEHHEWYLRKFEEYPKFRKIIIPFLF
Sequence of Steroid 5-alpha-reductase (Homo sapiens) (P31213 whole entry, looked up): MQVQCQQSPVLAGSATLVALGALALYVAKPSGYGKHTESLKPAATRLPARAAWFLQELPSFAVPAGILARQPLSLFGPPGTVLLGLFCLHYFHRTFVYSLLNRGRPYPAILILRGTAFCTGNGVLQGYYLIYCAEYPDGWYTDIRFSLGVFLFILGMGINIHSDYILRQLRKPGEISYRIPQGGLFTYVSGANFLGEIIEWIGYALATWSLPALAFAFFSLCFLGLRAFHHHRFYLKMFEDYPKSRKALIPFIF
Sequence of Steroid 5-alpha-reductase (Homo sapiens) (Q9H8P0 whole entry, looked up): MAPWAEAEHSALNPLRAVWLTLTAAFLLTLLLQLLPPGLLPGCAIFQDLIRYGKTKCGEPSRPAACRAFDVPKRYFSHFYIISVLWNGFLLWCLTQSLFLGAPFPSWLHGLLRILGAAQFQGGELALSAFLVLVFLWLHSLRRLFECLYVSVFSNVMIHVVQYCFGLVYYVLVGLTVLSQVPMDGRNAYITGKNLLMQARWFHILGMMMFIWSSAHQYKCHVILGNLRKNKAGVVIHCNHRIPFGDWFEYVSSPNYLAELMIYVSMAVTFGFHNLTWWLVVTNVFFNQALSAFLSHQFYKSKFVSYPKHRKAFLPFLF

Androgen receptor = target: T1, Androgen receptor (Homo sapiens, UniProt P10275); experiment: Displacement of [3H]methyltrienolone from androgen receptor in human prostate cancer cells; format: cell-based, Cancer cell lines
T1 sequence (P10275 whole entry): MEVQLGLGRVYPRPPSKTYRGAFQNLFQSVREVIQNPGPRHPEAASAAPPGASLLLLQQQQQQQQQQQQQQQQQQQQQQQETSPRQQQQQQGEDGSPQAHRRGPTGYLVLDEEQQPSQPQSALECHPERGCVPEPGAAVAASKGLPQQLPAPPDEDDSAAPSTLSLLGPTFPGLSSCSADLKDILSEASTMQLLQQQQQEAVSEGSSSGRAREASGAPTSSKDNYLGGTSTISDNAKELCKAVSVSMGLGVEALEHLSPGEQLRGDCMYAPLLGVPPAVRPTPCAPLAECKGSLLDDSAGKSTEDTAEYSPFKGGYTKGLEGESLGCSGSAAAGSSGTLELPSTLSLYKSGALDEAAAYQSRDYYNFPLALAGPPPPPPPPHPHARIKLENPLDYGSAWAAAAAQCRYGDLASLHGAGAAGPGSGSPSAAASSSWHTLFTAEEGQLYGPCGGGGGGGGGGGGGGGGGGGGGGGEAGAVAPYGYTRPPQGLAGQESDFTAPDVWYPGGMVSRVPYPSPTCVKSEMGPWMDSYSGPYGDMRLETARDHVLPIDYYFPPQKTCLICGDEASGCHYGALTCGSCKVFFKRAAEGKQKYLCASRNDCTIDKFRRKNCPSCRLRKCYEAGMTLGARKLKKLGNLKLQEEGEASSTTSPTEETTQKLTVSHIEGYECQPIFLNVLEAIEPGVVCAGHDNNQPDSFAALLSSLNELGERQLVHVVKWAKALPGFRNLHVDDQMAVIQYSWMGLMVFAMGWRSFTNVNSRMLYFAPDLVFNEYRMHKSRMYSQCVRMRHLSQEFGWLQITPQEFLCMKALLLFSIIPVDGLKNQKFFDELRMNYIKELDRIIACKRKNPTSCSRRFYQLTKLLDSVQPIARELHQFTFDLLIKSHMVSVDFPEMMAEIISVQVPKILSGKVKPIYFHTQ

Rattus norvegicus [5] = experiment: Antiandrogenic activity in sc dosed male castrated Wistar rat assessed as inhibition of testosterone propionate-induced ventral prostate gland organ effect; format: functional, organism-based
Rattus norvegicus [6] = experiment: Antiandrogenic activity in sc dosed male castrated Wistar rat assessed as inhibition of testosterone propionate-induced seminal vesicles gland organ effect; format: functional, organism-based
Rattus norvegicus [7] = experiment: Antiandrogenic activity in sc dosed male castrated Wistar rat assessed as inhibition of testosterone propionate-induced preputial gland organ effect; format: functional, organism-based
Rattus norvegicus [8] = experiment: Glucocorticoid activity in male castrated Wistar rat assessed as reduction in adrenal weight at 100 mg/kg, sc; format: functional, organism-based
Rattus norvegicus [9] = experiment: Glucocorticoid activity in male castrated Wistar rat assessed as reduction in thymus weight at 100 mg/kg, sc; format: functional, organism-based
[10] = Drug metabolism in rat plasma assessed as compound remaining after 0 mins by HPLC analysis; format: ADME, cell-free; details: read-out: Drug metabolism
[11] = Drug metabolism in rat plasma assessed as compound remaining after 5 mins by HPLC analysis; format: ADME, cell-free; details: read-out: Drug metabolism
[12] = Drug metabolism in rat plasma assessed as compound remaining after 15 mins by HPLC analysis; format: ADME, cell-free; details: read-out: Drug metabolism
[13] = Drug metabolism in rat plasma assessed as compound remaining after 30 mins by HPLC analysis; format: ADME, cell-free; details: read-out: Drug metabolism
[14] = Drug metabolism in rat plasma assessed as compound remaining after 1 hr by HPLC analysis; format: ADME, cell-free; details: read-out: Drug metabolism
[15] = Drug metabolism in rat plasma assessed as compound remaining after 2 hrs by HPLC analysis; format: ADME, cell-free; details: read-out: Drug metabolism
[16] = Drug metabolism in rat plasma assessed as compound remaining after 4 hrs by HPLC analysis; format: ADME, cell-free; details: read-out: Drug metabolism
[17] = Drug metabolism in rat plasma assessed as compound remaining after 8 hrs by HPLC analysis; format: ADME, cell-free; details: read-out: Drug metabolism
[18] = Drug metabolism in human plasma assessed as compound remaining after 30 mins by HPLC analysis; format: ADME, cell-free; details: read-out: Drug metabolism
[19] = Drug metabolism in human plasma assessed as compound remaining after 1 hr by HPLC analysis; format: ADME, cell-free; details: read-out: Drug metabolism
[20] = Drug metabolism in human plasma assessed as compound remaining after 2 hrs by HPLC analysis; format: ADME, cell-free; details: read-out: Drug metabolism
[21] = Drug metabolism in human plasma assessed as compound remaining after 4 hrs by HPLC analysis; format: ADME, cell-free; details: read-out: Drug metabolism
[22] = Drug metabolism in human plasma assessed as compound remaining after 6 hrs by HPLC analysis; format: ADME, cell-free; details: read-out: Drug metabolism
[23] = Drug metabolism in human plasma assessed as compound remaining after 0 mins by HPLC analysis; format: ADME, cell-free; details: read-out: Drug metabolism
[24] = Drug metabolism in rat skin homogenate assessed as compound remaining after 5 mins by HPLC analysis; format: ADME, tissue-based, Zone of skin; details: read-out: Drug metabolism
[25] = Drug metabolism in rat skin homogenate assessed as compound remaining after 15 mins by HPLC analysis; format: ADME, tissue-based, Zone of skin; details: read-out: Drug metabolism
[26] = Drug metabolism in rat skin homogenate assessed as compound remaining after 30 mins by HPLC analysis; format: ADME, tissue-based, Zone of skin; details: read-out: Drug metabolism
[27] = Drug metabolism in rat skin homogenate assessed as compound remaining after 1 hr by HPLC analysis; format: ADME, tissue-based, Zone of skin; details: read-out: Drug metabolism
[28] = Drug metabolism in rat skin homogenate assessed as compound remaining after 2 hrs by HPLC analysis; format: ADME, tissue-based, Zone of skin; details: read-out: Drug metabolism
[29] = Drug metabolism in rat skin homogenate assessed as compound remaining after 4 hrs by HPLC analysis; format: ADME, tissue-based, Zone of skin; details: read-out: Drug metabolism
[30] = Drug metabolism in rat skin homogenate assessed as compound remaining after 8 hrs by HPLC analysis; format: ADME, tissue-based, Zone of skin; details: read-out: Drug metabolism
[31] = Drug metabolism in rat skin homogenate assessed as compound remaining after 16 hrs by HPLC analysis; format: ADME, tissue-based, Zone of skin; details: read-out: Drug metabolism
[32] = Drug metabolism in rat skin homogenate assessed as compound remaining after 24 hrs by HPLC analysis; format: ADME, tissue-based, Zone of skin; details: read-out: Drug metabolism
[33] = Drug metabolism in rat skin homogenate assessed as compound remaining after 0 mins by HPLC analysis; format: ADME, tissue-based, Zone of skin; details: read-out: Drug metabolism

Drug metabolism (Plasma): metabolite_detected
SMILES: CCC(=O)OCC(=O)[C@@]1(O)CC[C@H]2[C@@H]3CCC4=CC(=O)CC[C@]4(C)[C@H]3CC[C@@]21C
inhibition (INH) (Syrian golden hamster [1]): 29%

SMILES: C[C@]12CCC(=O)C=C1CC[C@@H]1[C@@H]2CC[C@@]2(C)[C@H]1CC[C@]2(O)C(=O)CO [CORTODOXONE]
inhibition (INH) (Syrian golden hamster [1]): 0%

SMILES: CCCC(=O)O[C@]1(C(=O)CO)CC[C@H]2[C@@H]3CCC4=CC(=O)CC[C@]4(C)C3=CC[C@@]21C
inhibition (INH) (Syrian golden hamster [1]): 85%

inhibition [4]: inactive
IC50 (Androgen receptor): 50 nM
Ki (Androgen receptor): 40 nM
remaining at 0 h [10]: 100%
remaining at 5 min [11]: 90%
remaining at 0.25 h [12]: 90%
remaining at 0.5 h [13]: 80%
remaining at 1 h [14]: 60%
remaining at 2 h [15]: 50%
remaining at 4 h [16]: 20%
remaining at 8 h [17]: 0%
remaining at 0.5 h [18]: 93.2%
remaining at 1 h [19]: 85.2%
remaining at 2 h [20]: 67.2%
remaining at 4 h [21]: 30.3%
remaining at 6 h [22]: 11.3%
remaining at 0 h [23]: 99.6%
remaining at 5 min [24]: 99%
remaining at 0.25 h [25]: 99%
remaining at 0.5 h [26]: 98.5%
remaining at 1 h [27]: 89.5%
remaining at 2 h [28]: 69.5%
remaining at 4 h [29]: 59.5%
remaining at 8 h [30]: 49.5%
remaining at 16 h [31]: 44.8%
remaining at 24 h [32]: 44.8%
remaining at 0 h [33]: 99%
SMILES: CCC(=O)O[C@]1(C(=O)CO)CC[C@H]2[C@@H]3CCC4=CC(=O)CC[C@]4(C)[C@H]3CC[C@@]21C [CLASCOTERONE]
inhibition (INH) (Syrian golden hamster [1]): 84%
inhibition (INH) (Syrian golden hamster [2]): 40%
inhibition (INH) (Syrian golden hamster [3]): 78%
Activity (Rattus norvegicus [5]): inactive
Activity (Rattus norvegicus [6]): inactive
Activity (Rattus norvegicus [7]): inactive
inhibition (Rattus norvegicus [8]): Active
inhibition (Rattus norvegicus [9]): Active

SMILES: CC(=O)O[C@]1(C(C)=O)CC[C@H]2[C@@H]3C=C(Cl)C4=CC(=O)[C@@H]5C[C@@H]5[C@]4(C)[C@H]3CC[C@@]21C [CYPROTERONE ACETATE]
inhibition (INH) (Syrian golden hamster [1]): 93%

SMILES: CCC(=O)OCC(=O)[C@@]1(OC(=O)CC)CC[C@H]2[C@@H]3CCC4=CC(=O)CC[C@]4(C)[C@H]3CC[C@@]21C
inhibition (INH) (Syrian golden hamster [1]): 57%

SMILES: CC(C)(C)NC(=O)[C@H]1CC[C@H]2[C@@H]3CC[C@H]4NC(=O)C=C[C@]4(C)[C@H]3CC[C@]12C [FINASTERIDE]
inhibition (INH) (Syrian golden hamster [1]): 71%
